According to PubChem BioAssay (NCI):
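Tested at 5 concentrations; 48 h exposure; 96-well plates; endpoints linearly interpolated, else capped at highest concentration. At the TGI there is no net growth.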

Tests used:
Test in all cases: NCI-60 cell line screen, 48 h
[1] = test system: 786-0 renal
[2] = test system: A498 renal
[3] = test system: A549 NSCLC
[4] = test system: ACHN renal
[5] = test system: CAKI-1 renal
[6] = test system: CCRF-CEM leukemia
[7] = test system: COLO 205 colon
[8] = test system: DLD-1 colon
[9] = test system: DMS 114 small cell lung
[10] = test system: DMS 273 small cell lung
[11] = test system: EKVX NSCLC
[12] = test system: HCC-2998 colon
[13] = test system: HCT-116 colon
[14] = test system: HCT-15 colon
[15] = test system: HL-60(TB) leukemia
[16] = test system: HOP-18 NSCLC
[17] = test system: HOP-62 NSCLC
[18] = test system: HOP-92 NSCLC
[19] = test system: HT29 colon
[20] = test system: IGROV1 ovarian
[21] = test system: K-562 leukemia
[22] = test system: KM20L2 colon
[23] = test system: LOX IMVI melanoma
[24] = test system: LXFL 529 NSCLC
[25] = test system: M14 melanoma
[26] = test system: M19-MEL melanoma
[27] = test system: MALME-3M melanoma
[28] = test system: MOLT-4 leukemia
[29] = test system: NCI-H226 lung
[30] = test system: NCI-H23 lung
[31] = test system: NCI-H522 lung
[32] = test system: OVCAR-3 ovarian
[33] = test system: OVCAR-4 ovarian
[34] = test system: OVCAR-5 ovarian
[35] = test system: OVCAR-8 ovarian
[36] = test system: RPMI-8226 leukemia
[37] = test system: RXF-631 renal
[38] = test system: SF-268 CNS
[39] = test system: SF-295 CNS
[40] = test system: SF-539 CNS
[41] = test system: SK-MEL-2 melanoma
[42] = test system: SK-MEL-28 melanoma
[43] = test system: SK-MEL-5 melanoma
[44] = test system: SK-OV-3 ovarian
[45] = test system: SN12C renal
[46] = test system: SNB-19 CNS
[47] = test system: SNB-75 CNS
[48] = test system: SNB-78 CNS
[49] = test system: SR leukemia
[50] = test system: SW-620 colon
[51] = test system: TK-10 renal
[52] = test system: U251 CNS
[53] = test system: UACC-257 melanoma
[54] = test system: UACC-62 melanoma
[55] = test system: UO-31 renal
[56] = test system: KM12 colon
[57] = test system: NCI-H460 lung

Measured: TGI

COCCCNC(=O)C1C(=O)C(=O)N(CCCOC)C1=O (stereo unspecified)
> 100 µM: [1] | [2] | [3] | [4] | [5] | [6] | [7] | [8] | [9] | [10] | [11] | [12] | [13] | [14] | [15] | [16] | [17] | [18] | [19] | [20] | [21] | [22] | [23] | [24] | [25] | [26] | [27] | [28] | [29] | [30] | [31] | [32] | [33] | [34] | [35] | [36] | [37] | [38] | [39] | [40] | [41] | [42] | [43] | [44] | [45] | [46] | [47] | [48] | [49] | [50] | [51] | [52] | [53] | [54] | [55]

Cc1cc(N(CCC#N)CCC#N)ccc1/C=C1\N=C(c2cc([N+](=O)[O-])ccc2Cl)N(c2cccc(Cl)c2)C1=O
> 100 µM: [1] | [2] | [3] | [4] | [5] | [6] | [7] | [8] | [9] | [10] | [11] | [12] | [13] | [14] | [15] | [16] | [17] | [18] | [19] | [20] | [21] | [56] | [22] | [24] | [25] | [26] | [27] | [28] | [29] | [30] | [57] | [31] | [32] | [33] | [34] | [35] | [36] | [37] | [38] | [39] | [40] | [41] | [42] | [43] | [44] | [45] | [46] | [47] | [48] | [49] | [50] | [51] | [52] | [53] | [54] | [55]
